Assay results published in article PMC7671190 (Journal of medicinal chemistry, 2020).
Where two headings read alike, the source gives them in different places.

Key:
[1] = tested on: wild type MARV (Lake Victoria, 2005 Angola); assay: organism not typed; type: cell-based, Marburg virus (MARV); conditions: Vero, read-out: MARV EC50, Vero cells
[2] = tested on: Wild type Ebola virus (1976 Mayinga variant); type: cell-based, Ebola virus (EBOV)
[3] = tested on: HIV/EBOV-GP pseudotype virus; assay: organism not typed; type: cell-based, Ebola virus (EBOV)
[4] = target: CYP2C9 (Homo sapiens, UniProt P11712)
Chain of CYP2C9 (P11712 whole entry): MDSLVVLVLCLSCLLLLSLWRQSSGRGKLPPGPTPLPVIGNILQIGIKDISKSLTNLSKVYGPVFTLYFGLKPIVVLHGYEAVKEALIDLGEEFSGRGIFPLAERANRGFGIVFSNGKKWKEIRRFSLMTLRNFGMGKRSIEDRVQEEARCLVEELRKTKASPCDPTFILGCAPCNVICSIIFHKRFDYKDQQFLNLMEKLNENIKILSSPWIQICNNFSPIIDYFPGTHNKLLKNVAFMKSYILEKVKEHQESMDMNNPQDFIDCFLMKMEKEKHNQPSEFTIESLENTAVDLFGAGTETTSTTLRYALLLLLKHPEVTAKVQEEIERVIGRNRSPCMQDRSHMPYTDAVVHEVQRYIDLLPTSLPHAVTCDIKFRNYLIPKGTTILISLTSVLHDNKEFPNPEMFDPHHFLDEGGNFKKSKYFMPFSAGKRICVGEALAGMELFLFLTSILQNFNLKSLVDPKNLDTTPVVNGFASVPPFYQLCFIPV

[5] = target: CYP3A4 (Homo sapiens, UniProt P08684)
Chain of CYP3A4 (P08684 whole entry): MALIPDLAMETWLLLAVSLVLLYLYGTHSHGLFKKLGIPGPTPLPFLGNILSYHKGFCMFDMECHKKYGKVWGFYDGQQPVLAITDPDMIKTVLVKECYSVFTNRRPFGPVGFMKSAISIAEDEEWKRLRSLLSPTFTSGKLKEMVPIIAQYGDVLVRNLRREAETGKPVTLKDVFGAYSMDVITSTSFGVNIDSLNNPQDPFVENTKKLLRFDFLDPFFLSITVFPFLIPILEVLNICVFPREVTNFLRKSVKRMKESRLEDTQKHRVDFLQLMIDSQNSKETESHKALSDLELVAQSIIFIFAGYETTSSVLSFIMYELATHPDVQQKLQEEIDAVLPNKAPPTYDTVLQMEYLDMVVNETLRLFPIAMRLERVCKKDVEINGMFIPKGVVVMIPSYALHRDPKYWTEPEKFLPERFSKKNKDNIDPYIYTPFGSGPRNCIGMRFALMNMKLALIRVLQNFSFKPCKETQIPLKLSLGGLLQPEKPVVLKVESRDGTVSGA

[6] = A549, read-out: EC50, Ebola pseudovirus (in nM)

COC(=O)c1ccc(NC(=O)c2ccc(CN3CCCCC3)cc2)cc1 [Compound 5, Methyl 4-(4-(piperidin-1-ylmethyl)benzamido)benzoate]
EC50 [1]: < 10000 nM
EBOV (HeLa) EC50 [2]: inactive

COC(=O)c1ccc(NC(=O)c2ccc(CN3CCN(C)CC3)cc2)cc1 [Compound 7, Methyl 4-(4-((4-methylpiperazin-1-yl)methyl)benzamido)benzoate]
inhibition at 12.5 µM ([3]; A549, read-out: Ebola pseudovirus A549 cells % inhibition): 29%

O=C(NCCC1CCCCC1)c1ccc(CN2CCCCC2)cc1 [Compound 28, N-(2-Cyclohexylethyl)-4-(piperidin-1-ylmethyl)benzamide]
Drop in potency on replacing the aniline aromatic ring with a two-carbon linker [3]: 2.3 fold

O=C(Nc1ccc(C23CC4CC(CC(C4)C2)C3)cc1)c1ccc(CN2CCCCC2)cc1 [Compound 32, N-(4-((1R,3R,5S)-adamantan-1-yl)phenyl)-4-(piperidin-1-ylmethyl)benzamide]
EC50 [3, 6]: < 100 nM
CYP450 inhibition CYP2C9 IC50 [4]: did not inhibit
CYP450 inhibition CYP3A4 IC50 [5]: did not inhibit

O=C(Nc1ccc(C23CC4CC(CC(C4)C2)C3)cc1)c1ccc(CN2CCOCC2)cc1 [Compound 33, N-(4-((1R,3R,5S)-Adamantan-1-yl)phenyl)-4-(morpholinomethyl)benzamide]
EC50 [3, 6]: < 100 nM

O=C(Nc1ccc(N2CCC(F)(F)CC2)cc1)c1ccc(CN2CCCCC2)cc1 [Compound 34, N-(4-(4,4-Difluoropiperidin-1-yl)phenyl)-4-(piperidin-1-ylmethyl)benzamide]
EC50 ([3]; A549, read-out: Ebola pseudovirus A549 cells EC50): < 1000 nM
